{"source": "patent US20040186022A1", "about": "“Enhanced herbicides” (priority 1999, published 2004)", "key": {"[1]": {"assay": "Measurement of pH values for test desiccants (Example 56)", "format": "physicochemical"}, "[2]": {"tested_on": "60 G/a: lambsquarter, pigweed and velvetleaf; spray to drip: lambsquarter and foxtail", "assay": "Herbicidal activity of caproic acid with succinic acid and sodium salicylate", "format": "in vivo", "description": "(§1) The herbicides were applied in the “spray to drip” amount or at a calibrated 20-60 gallons/acre. “Spray to drip” is an uncalibrated application of fluid to foliage, where sufficient spray volume is used to sufficiently saturate the foliage surface until excess fluid begins to drip from the foliage."}, "Potato, variety Katahdin": {"tested_on": "Potato, variety Katahdin", "assay": "Potato field trial: 2 applications of selected herbicides, including Desiccate II", "format": "in vivo", "details": "scale 1-5", "description": "as §1"}, "plants": {"tested_on": "plants", "assay": "Herbicidal enhancement of pelargonic by succinic acid and diammonium succinate", "format": "in vivo", "description": "as §1"}, "soybeans": {"tested_on": "soybeans", "assay": "Synergistic relationships: succinic acid + caprylic acid, succinic acid + sodium salicylate, testing soybeans", "format": "in vivo", "details": "3 days after a single foliar application, soybean Stine 2250", "description": "as §1"}, "[3]": {"tested_on": "chickweed, redtop, velvetleaf, crabgrass and green foxtail", "assay": "Enhancement of herbicidal activity of caprylic/capric acids (c/c) using selected compounds at equimolar amounts", "format": "in vivo", "description": "as §1"}, "[4]": {"tested_on": "40 G/a: crab grass, chickweed and common lambsquarter; 60 G/a: redtop, pigweed, foxtail; spray to drip: barnyard grass, foxtail, sudan grass and nutsedge", "assay": "Herbicidal combinations of caprylic/capric (c/c) or pelargonic acid with equimolar succinic acid and ammonium succinate, on weed varieties", "format": "in vivo"}, "[5]": {"tested_on": "Kentucky bluegrass, velvetleaf, foxtail, tomato, potato and snapbeans", "description": "as §1"}}, "data": [{"smiles": "NCCC(=O)O", "note": "[Beta-Alanine (0.5%)]", "values": [{"measurement": "pH Value", "setting": "[1]", "value": 6.65}]}, {"smiles": "CCCCCC(=O)O", "note": "[2% caproic, caproic acid]", "values": [{"measurement": "Total Injury ratings, Total score", "setting": "[2]; 60 G/a plus spray to drip", "value": 18.5}, {"measurement": "Total injury ratings, 60 G/a", "setting": "[2]; 60 G/a, 4 pots/treatment, lambsquarter, pigweed and velvetleaf, rating 1-5 per pot", "value": 11.2}, {"measurement": "Total injury ratings, Spray to drip", "setting": "[2]; spray to drip, 2 pots/treatment, lambsquarter and foxtail", "value": 7.3}]}, {"smiles": "CCCCCCCCC(=O)O", "note": "[5% pelargonic, pelargonic acid]", "values": [{"measurement": "Injury rating, average per plot", "setting": "Potato, variety Katahdin; Day 1, 40-42 G/acre, 2nd treatment 2 days after 1st", "value": 4.07}, {"measurement": "Injury rating, average per plot", "setting": "Potato, variety Katahdin; Day 2", "value": 4}, {"measurement": "Injury rating, average per plot", "setting": "Potato, variety Katahdin; Day 3", "value": 4.13}, {"measurement": "Injury rating, average per plot", "setting": "Potato, variety Katahdin; Day 5", "value": 4.43}]}, {"smiles": "CCCCCCCCC(=O)O", "note": "[2.5% pelargonic]", "values": [{"measurement": "Injury ratings based on 2 independent evaluations, 40 G/a", "setting": "plants; 40 G/a: lambsquarter, velvetleaf and green foxtail, each pot rated 1 to 5", "value": 79.2}, {"measurement": "Injury ratings based on 2 independent evaluations, 60 G/a", "setting": "plants; 60 G/a: pigweed, chickweed, crabgrass, green foxtail, velvetleaf, lambsquarter and wheat, each pot rated 1 to 5", "value": 102.2}, {"measurement": "Injury ratings based on 2 independent evaluations, Spray to drip", "setting": "plants; Spray to drip: nutsedge, velvetleaf, green foxtail, giant foxtail and barnyard grass, each pot rated 1 to 5", "value": 53.8}, {"measurement": "Average rating per pot", "setting": "plants; rating 1 to 5, 5 = complete desiccation of all plants", "value": 4.36}]}, {"smiles": "O=C(O)CCC(=O)O", "note": "[succinic acid (1%), succinic acid]", "values": [{"measurement": "Foliage Affected (%)", "setting": "soybeans", "value": 0, "unit": "%"}, {"measurement": "Overall Effect", "setting": "soybeans; 5 equals profound desiccation", "value": 0}, {"measurement": "Relative injury ratings, Day #2", "setting": "[3]; Day 2 after treatment, 40 G/acre, 8 pots, rating 1-5 per pot, […] Emsorb 6900, […] mineral oil", "value": 0}, {"measurement": "Relative injury ratings, Day #4", "setting": "[3]; Day 4 after treatment", "value": 0}, {"measurement": "Relative injury ratings, Day #5", "setting": "[3]; Day 5 after treatment", "value": 0}, {"measurement": "Average rating per pot", "setting": "[3]; scale 1-5", "value": 0}]}, {"smiles": "CCCCCCCCC(=O)O", "note": "[3% pelargonic acid, pelargonic acid]", "values": [{"measurement": "Total injury ratings, Total", "setting": "[4]; 40 G/a, 60 G/a and spray to drip", "value": 185.8}, {"measurement": "Total injury ratings, 40 G/a", "setting": "[4]; 40 G/a, 10 pots/treatment, two evaluations, rating 1-5 per pot, 1% Emsorb 6900", "value": 87.7}, {"measurement": "Total injury ratings, 60 G/a", "setting": "[4]; 60 G/a, 7 pots/treatment, two evaluations", "value": 60.8}, {"measurement": "Average rating/pot", "setting": "[4]; scale 1-5", "value": 4.42}, {"measurement": "Total injury ratings, Spray to drip", "setting": "[4]; spray to drip, 8 pots/treatment, one evaluation", "value": 37.3}]}, {"smiles": "O=C([O-])c1ccccc1O.[Na+]", "note": "[1.5% sodium salicylate, sodium salicylate]", "values": [{"measurement": "Injury rating, Spray to drip", "setting": "[5]; rating 1-5 per pot, three evaluations, 30% acetone, 0.3% Sylgard 309", "value": 56.2}, {"measurement": "Injury rating, Average rating per pot", "setting": "[5]; scale 1-5, spray to drip", "value": 3.51}]}, {"smiles": "O=C([O-])c1ccccc1O.[Na+]", "note": "[Sodium Salicylate (0.5%)]", "values": [{"measurement": "pH Value", "setting": "[1]", "value": 4.48}]}]}
